According to ChEMBL document CHEMBL5724914, “Linking interpersonal differences in gut microbiota composition and drug biotransformation activity” (2024):

Experiments:
[1] = human gut metagenome, 24 h, 2 µM
[2] = (§1) The drug is tested on Z-026 corresponding to metagenome with ENA study accession number: PRJEB37062 and ENA sample accession number: ERS12561825 for biotransformation under anaerobic condition. The drug concentrations were measured over 9 timepoints collected between 0 and 24 hours of incubation by liquid-chromatography-coupled mass spectrometry (LC–MS); conditions: 2 µM
[3] = human gut metagenome, 24 h, 2 µM; remark: listed apart in the source
[4] = human gut metagenome, 24 h, 2 µM; remark: listed apart in the source
[5] = human gut metagenome, 24 h, 2 µM; remark: listed apart in the source
[6] = (§2) The drug is tested on Z-030 corresponding to mouse gut metagenome with ENA study accession number: PRJEB37062 and ENA sample accession number: ERS12561829 for biotransformation under anaerobic condition. The drug concentrations were measured over 9 timepoints collected between 0 and 24 hours of incubation by liquid-chromatography-coupled mass spectrometry (LC–MS); conditions: 2 µM
[7] = as §1, with “Z-008” for “Z-026”, “ERS12561808” for “ERS12561825”; conditions: 2 µM
[8] = human gut metagenome, 24 h, 2 µM; remark: listed apart in the source
[9] = human gut metagenome, 24 h, 2 µM; remark: listed apart in the source
[10] = human gut metagenome, 24 h, 2 µM; remark: listed apart in the source
[11] = human gut metagenome, 24 h, 2 µM; remark: listed apart in the source
[12] = as §2, with “Z-003” for “Z-030”, “pig” for “mouse”, “ERS12561803” for “ERS12561829”; conditions: 2 µM
[13] = human gut metagenome, 24 h, 2 µM; remark: listed apart in the source
[14] = as §2, with “WLS-007” for “Z-030”, “human” for “mouse”, “ERS12561742” for “ERS12561829”; conditions: 2 µM
[15] = as §2, with “Z-020” for “Z-030”, “rabbit” for “mouse”, “ERS12561819” for “ERS12561829”; conditions: 2 µM
[16] = as §2, with “WLS-310” for “Z-030”, “human” for “mouse”, “ERS12561785” for “ERS12561829”; conditions: 2 µM
[17] = as §2, with “WLS-220” for “Z-030”, “human” for “mouse”, “ERS12561769” for “ERS12561829”; conditions: 2 µM
[18] = human gut metagenome, 24 h, 2 µM; remark: listed apart in the source
[19] = human gut metagenome, 24 h, 2 µM; remark: listed apart in the source
[20] = as §2, with “WLS-077” for “Z-030”, “human” for “mouse”, “ERS12561750” for “ERS12561829”; conditions: 2 µM
Further: call rule not given here.

| Structure (SMILES) | Bacterial Biotransformation [1] | Bacterial Biotransformation [2] | Bacterial Biotransformation [3] | Bacterial Biotransformation [4] | Bacterial Biotransformation [5] | Bacterial Biotransformation [6] | Bacterial Biotransformation [7] | Bacterial Biotransformation [8] | Bacterial Biotransformation [9] | Bacterial Biotransformation [10] | Bacterial Biotransformation [11] | Bacterial Biotransformation [12] | Bacterial Biotransformation [13] | Bacterial Biotransformation [14] | Bacterial Biotransformation [15] | Bacterial Biotransformation [16] | Bacterial Biotransformation [17] | Bacterial Biotransformation [18] | Bacterial Biotransformation [19] | Bacterial Biotransformation [20] |
| --- | --- | --- | --- | --- | --- | --- | --- | --- | --- | --- | --- | --- | --- | --- | --- | --- | --- | --- | --- | --- |
| CSc1ccc2c(c1)C(N1CCN(C)CC1)Cc1ccccc1S2.O=C(O)/C=C\C(=O)O (stereo not drawn) | Compound NOT metabolized | Compound NOT metabolized | Compound NOT metabolized | Compound NOT metabolized | Compound NOT metabolized | Compound NOT metabolized | Compound NOT metabolized | Compound NOT metabolized | Compound NOT metabolized | Compound metabolized | Compound NOT metabolized | Compound metabolized | Compound NOT metabolized | Compound NOT metabolized |  |  |  |  |  |  |
| COc1ccc(/C=C/C(=O)Nc2ccccc2C(=O)O)cc1OC | Compound NOT metabolized | Compound metabolized | Compound NOT metabolized | Compound NOT metabolized | Compound NOT metabolized | Compound NOT metabolized | Compound NOT metabolized | Compound NOT metabolized | Compound NOT metabolized | Compound NOT metabolized | Compound NOT metabolized | Compound metabolized | Compound NOT metabolized |  | Compound metabolized | Compound metabolized | Compound NOT metabolized | Compound NOT metabolized | Compound NOT metabolized | Compound metabolized |
| CC(C)C[C@H]1C(=O)N2CCC[C@H]2[C@]2(O)O[C@](NC(=O)[C@@H]3C=C4c5cccc6[nH]c(Br)c(c56)C[C@H]4N(C)C3)(C(C)C)C(=O)N12.CS(=O)(=O)O [BROMOCRIPTINE MESYLATE] |  | Compound metabolized | Compound metabolized | Compound metabolized | Compound NOT metabolized | Compound metabolized | Compound metabolized | Compound NOT metabolized | Compound NOT metabolized | Compound metabolized | Compound NOT metabolized | Compound metabolized | Compound metabolized | Compound metabolized |  | Compound metabolized | Compound metabolized | Compound metabolized | Compound metabolized | Compound metabolized |
| CCOC(=O)[C@H](CCc1ccccc1)N[C@@H](C)C(=O)N1CCC[C@H]1C(=O)O.O=C(O)/C=C\C(=O)O [ENALAPRIL MALEATE] | Compound NOT metabolized | Compound NOT metabolized | Compound NOT metabolized | Compound NOT metabolized | Compound NOT metabolized | Compound NOT metabolized | Compound NOT metabolized | Compound NOT metabolized | Compound NOT metabolized | Compound NOT metabolized | Compound NOT metabolized | Compound NOT metabolized | Compound NOT metabolized | Compound NOT metabolized |  | Compound NOT metabolized | Compound NOT metabolized | Compound NOT metabolized | Compound NOT metabolized | Compound NOT metabolized |
| CN1[C@@H]2CC[C@H]1C[C@@H](OC(=O)[C@H](CO)c1ccccc1)C2 [HYOSCYAMINE] |  | Compound NOT metabolized | Compound metabolized | Compound metabolized | Compound NOT metabolized | Compound NOT metabolized |  | Compound metabolized |  |  |  |  |  | Compound metabolized |  | Compound metabolized |  |  | Compound metabolized |  |
| COC1=C(OC)C(=O)C(CCCCCCCCCCO)=C(C)C1=O [IDEBENONE] |  | Compound NOT metabolized | Compound metabolized |  | Compound NOT metabolized | Compound NOT metabolized |  | Compound metabolized | Compound metabolized | Compound metabolized |  | Compound metabolized | Compound metabolized | Compound metabolized | Compound metabolized | Compound metabolized |  | Compound NOT metabolized | Compound metabolized | Compound metabolized |

Further lines, results first:

| Bacterial Biotransformation [1] | Bacterial Biotransformation [2] | Bacterial Biotransformation [3] | Bacterial Biotransformation [4] | Bacterial Biotransformation [5] | Bacterial Biotransformation [6] | Bacterial Biotransformation [7] | Bacterial Biotransformation [8] | Bacterial Biotransformation [9] | Bacterial Biotransformation [10] | Bacterial Biotransformation [11] | Bacterial Biotransformation [12] | Bacterial Biotransformation [13] | Bacterial Biotransformation [14] | Bacterial Biotransformation [15] | Bacterial Biotransformation [16] | Bacterial Biotransformation [17] | Bacterial Biotransformation [18] | Bacterial Biotransformation [19] | Bacterial Biotransformation [20] | Structure (SMILES) |
| --- | --- | --- | --- | --- | --- | --- | --- | --- | --- | --- | --- | --- | --- | --- | --- | --- | --- | --- | --- | --- |
| Compound metabolized |  | Compound metabolized | Compound metabolized | Compound metabolized | Compound NOT metabolized | Compound metabolized | Compound metabolized | Compound metabolized | Compound NOT metabolized | Compound metabolized | Compound metabolized | Compound metabolized |  | Compound metabolized |  |  | Compound metabolized |  |  | C#C[C@]1(OC(C)=O)CC[C@H]2[C@@H]3CCC4=CC(=O)CC[C@@H]4[C@H]3CC[C@@]21C [NORETHINDRONE ACETATE] |
| Compound metabolized | Compound metabolized | Compound NOT metabolized | Compound NOT metabolized | Compound NOT metabolized | Compound NOT metabolized | Compound NOT metabolized | Compound NOT metabolized | Compound NOT metabolized | Compound NOT metabolized | Compound NOT metabolized | Compound metabolized | Compound NOT metabolized |  | Compound metabolized | Compound NOT metabolized | Compound NOT metabolized | Compound NOT metabolized |  | Compound metabolized | CC(=O)O[C@H]1C(=O)[C@@]2(C)[C@H]([C@H](OC(=O)c3ccccc3)[C@]3(O)C[C@H](OC(=O)[C@H](O)[C@@H](NC(=O)c4ccccc4)c4ccccc4)C(C)=C1C3(C)C)[C@]1(OC(C)=O)CO[C@@H]1C[C@@H]2O [PACLITAXEL] |
| Compound metabolized | Compound NOT metabolized | Compound metabolized | Compound NOT metabolized | Compound NOT metabolized | Compound NOT metabolized | Compound NOT metabolized | Compound NOT metabolized | Compound NOT metabolized | Compound NOT metabolized | Compound metabolized | Compound NOT metabolized | Compound metabolized |  | Compound NOT metabolized | Compound NOT metabolized | Compound metabolized | Compound NOT metabolized | Compound NOT metabolized | Compound NOT metabolized | COc1cc(NC(C)CCCN)c2ncccc2c1.O=P(O)(O)O.O=P(O)(O)O (stereo not drawn) [PRIMAQUINE PHOSPHATE] |
| Compound NOT metabolized | Compound NOT metabolized | Compound NOT metabolized | Compound NOT metabolized | Compound NOT metabolized | Compound NOT metabolized | Compound NOT metabolized | Compound NOT metabolized | Compound NOT metabolized | Compound NOT metabolized | Compound NOT metabolized | Compound NOT metabolized | Compound NOT metabolized | Compound NOT metabolized |  | Compound NOT metabolized | Compound NOT metabolized | Compound NOT metabolized |  | Compound metabolized | CCCCCNC(=N)N/N=C/c1c[nH]c2ccc(OC)cc12.O=C(O)/C=C\C(=O)O [TEGASEROD MALEATE] |
